Results as given in patent US20160368879A1, “PHOTOACID GENERATOR, AND RESIN COMPOSITION FOR PHOTOLITHOGRAPHY” (SAN-APRO LTD., priority 2013, published 2016).

Columns and labels:
Assay type in all cases: physicochemical
[1] = Molar extinction coefficient of i-line (365 nm), UV-visible absorbance in acetonitrile; conditions: 0.25 mmol/L in acetonitrile, cell length 1 cm
Protocol: The synthesized photoacid generator was diluted to 0.25 mmol/L with acetonitrile, and using an ultraviolet-visible spectrophotometer (UV-2550 available from SHIMADZU CORPORATION), the absorbance in a range of 200 nm to 500 nm was measured with a cell having an optical path length (a cell length) of 1 cm. The molar extinction coefficient of i-line (365 nm) (ε365) was calculated from the following equation.
[In the equation, […] represents the absorbance at 365 nm.]

[2] = Thermal decomposition temperature (TG/DTA, 2% weight reduction); conditions: point of 2% weight reduction; 10° C./minute from 30° C. to 500° C.; nitrogen atmosphere
Protocol: The synthesized photoacid generator was measured for the change in weight under a temperature increasing condition of 10° C./minute from 30° C. to 500° C. under a nitrogen atmosphere using a thermal gravimetric/differential thermal analyzer (TG/DTA 6200, available from Seiko Instruments Inc.), and a point where the weight was reduced by 2% was defined as the thermal decomposition temperature.

[3] = Solvent solubility (butyl acetate, toluene or PGMEA); conditions: for Solvent solubility PGMEA / Solvent solubility Butyl acetate / Solvent solubility Toluene: 25° C.
Protocol: In a test tube, 0.1 g of the synthesized photoacid generator was placed, and an organic solvent (butyl acetate, toluene or PGMEA) was added thereto in 0.2 g portions under a condition where the temperature was adjusted to 25° C. until the photoacid generator was completely dissolved. In this connection, in the case where the photoacid generator was not completely dissolved even when 20 g of the solvent was added, the photoacid generator was evaluated as one that was not dissolved.

SMILES	Molar extinction coefficient [1] [L/mol/cm]	Thermal decomposition temperature [2] [°C]	Solvent solubility PGMEA [3] [wt %]	Solvent solubility Butyl acetate [3] [wt %]	Solvent solubility Toluene [3] [wt %]	solubility to a solvent (in words) ([3]; summary of Tables 4 to 6)
CC1(C)C2CCC1(CS(=O)(=O)ON1C(=O)c3cccc4c(C(F)(F)C(F)(F)C(F)(F)C(F)(F)C(F)(F)C(F)(F)C(F)(F)C(F)(F)F)ccc(c34)C1=O)C(=O)C2 (stereo not drawn) [Example A-57, 4-(heptadecafluoro-n-octyl)-1,8-naphthalimide-(+)-10-camphorsulfonate]	80	246	9	9.5	10	
COc1cc2c3c(cccc3c1)C(=O)N(OS(=O)(=O)C(F)(F)F)C2=O [Example A-8, 3-methoxy-1,8-naphthalimide trifluoromethanesulfonate]	7500	243	6	8	7.5	
CCCC(=O)Oc1cc2c3c(cccc3c1)C(=O)N(OS(=O)(=O)c1c(F)c(F)c(F)c(F)c1F)C2=O [Example A-30, 3-butyroyloxy-1,8-naphthalimide pentafluorobenzenesulfonate]	1600	235	14	18	20	
CC1(C)C2CC[C@@]1(CS(=O)(=O)ON1C(=O)c3cccc4cc(OC(=O)c5ccccc5)cc(c34)C1=O)C(=O)C2 [Example A-51, 3-benzoyloxy-1,8-naphthalimide-(+)-10-camphorsulfonate]	1400	245	5	6	6	
CC1(C)C2CCC1(CS(=O)(=O)ON1C(=O)c3cccc4c(Cl)ccc(c34)C1=O)C(=O)C2 (stereo not drawn) [Example A-59, 4-chloro-1,8-naphthalimide-(+)-10-camphorsulfonate]	6000	228	1.5	1.5	2.5	
CCCCC(CC)C(=O)Oc1cc2c3c(cccc3c1)C(=O)N(OS(=O)(=O)C(F)(F)F)C2=O (stereo not shown) [Example A-9, 3-(2-ethylhexanoyloxy)-1,8-naphthalimide trifluoromethanesulfonate]	1500	231	>30	>30	>30	
O=C1c2cccc3c(Oc4cccc(C(F)(F)F)c4)ccc(c23)C(=O)N1OS(=O)(=O)C(F)(F)F [Example A-6, 4-(3-trifluoromethylphenoxy)-1,8-naphthalimide trifluoromethanesulfonate]	16000	239	11	14	13	
CC(C)(C)Cc1cc2c3c(cc(CC(C)(C)C)cc3c1)C(=O)N(OS(=O)(=O)c1c(F)c(F)c(F)c(F)c1F)C2=O [Example A-34, 3,6-dineopentyl-1,8-naphthalimide pentafluorobenzenesulfonate]	6200	250	11	14	8	
O=C(Oc1cc2c3c(cccc3c1)C(=O)N(OS(=O)(=O)C(F)(F)F)C2=O)c1ccccc1 [Example A-11, 3-benzoyloxy-1,8-naphthalimide trifluoromethanesulfonate]	1400	241	20	25	23	
CCCOc1ccc2c3c(cccc13)C(=O)N(OS(=O)(=O)CC13CCC(CC1=O)C3(C)C)C2=O (stereo not drawn) [Example A-42, 4-n-propoxy-1,8-naphthalimide-(+)-10-camphorsulfonate]	14000	245	1.2	1.5	2	
CC1(C)C2CCC1(CS(=O)(=O)ON1C(=O)c3cccc4c(Br)ccc(c34)C1=O)C(=O)C2 (stereo not drawn) [Example A-60, 4-bromo-1,8-naphthalimide-(+)-10-camphorsulfonate]	8500	240	1.5	1.1	2	
COc1cc2c3c(cccc3c1)C(=O)N(OS(=O)(=O)c1c(F)c(F)c(F)c(F)c1F)C2=O [Example A-28, 3-methoxy-1,8-naphthalimide pentafluorobenzenesulfonate]	7500	240	5	6.5	6	
CCCCC(CC)C(=O)Oc1cc2c3c(cccc3c1)C(=O)N(OS(=O)(=O)c1c(F)c(F)c(F)c(F)c1F)C2=O (stereo not shown) [Example A-29, 3-(2-ethylhexanoyloxy)-1,8-naphthalimide pentafluorobenzenesulfonate]	1500	230	18	25	23	
CC1(C)C2CCC1(CS(=O)(=O)ON1C(=O)c3cccc4c(Oc5c(F)c(F)c(F)c(F)c5F)ccc(c34)C1=O)C(=O)C2 (stereo not drawn) [Example A-45, 4-pentafluorophenoxy-1,8-naphthalimide-(+)-10-camphorsulfonate]	12000	245	3.5	4	4	
O=C1c2cccc3cccc(c23)C(=O)N1OS(=O)(=O)c1c(F)c(F)c(F)c(F)c1F [A′-3, 1,8-naphthalimide pentafluorobenzenesulfonate, reference compound]	330	228	1.9	1.6	3.2	insufficient
O=C1c2cccc3c(Sc4ccccc4)ccc(c23)C(=O)N1OS(=O)(=O)c1c(F)c(F)c(F)c(F)c1F [Example A-27, 4-phenylthio-1,8-naphthalimide pentafluorobenzenesulfonate]	20000	242	4	5.5	5.5	
O=C1c2cccc3c(C(F)(F)C(F)(F)C(F)(F)C(F)(F)C(F)(F)C(F)(F)C(F)(F)C(F)(F)F)ccc(c23)C(=O)N1OS(=O)(=O)C(F)(F)F [Example A-17, 4-(heptadecafluoro-n-octyl)-1,8-naphthalimide trifluoromethanesulfonate]	80	242	>30	>30	>30	
CC(C)(C)c1cc2c3c(cc(C(C)(C)C)cc3c1)C(=O)N(OS(=O)(=O)c1c(F)c(F)c(F)c(F)c1F)C2=O [Example A-33, 3,6-di-tert-butyl-1,8-naphthalimide pentafluorobenzenesulfonate]	6500	245	6	6.5	6	
